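Test compounds were applied to cells in 96-well plates for 48 hours at 5 doses. The concentration for 50% growth inhibition is given as GI50. TGI marks complete inhibition of growth.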
Experiments:
Assay in all cases: NCI anticancer screen, dose series, 48 h
786-0 renal = system: 786-0 renal
A498 renal = system: A498 renal
A549 NSCLC = system: A549 NSCLC
ACHN renal = system: ACHN renal
BT-549 breast = system: BT-549 breast
CAKI-1 renal = system: CAKI-1 renal
CCRF-CEM leukemia = system: CCRF-CEM leukemia
COLO 205 colon = system: COLO 205 colon
DU-145 prostate = system: DU-145 prostate
EKVX NSCLC = system: EKVX NSCLC
HCC-2998 colon = system: HCC-2998 colon
HCT-116 colon = system: HCT-116 colon
HCT-15 colon = system: HCT-15 colon
HL-60(TB) leukemia = system: HL-60(TB) leukemia
HOP-62 NSCLC = system: HOP-62 NSCLC
HOP-92 NSCLC = system: HOP-92 NSCLC
HS 578T breast = system: HS 578T breast
HT29 colon = system: HT29 colon
IGROV1 ovarian = system: IGROV1 ovarian
K-562 leukemia = system: K-562 leukemia
KM12 colon = system: KM12 colon
LOX IMVI melanoma = system: LOX IMVI melanoma
M14 melanoma = system: M14 melanoma
MCF7 breast = system: MCF7 breast
MDA-MB-231 breast = system: MDA-MB-231 breast
MDA-MB-435 = system: MDA-MB-435
MOLT-4 leukemia = system: MOLT-4 leukemia
NCI-H226 lung = system: NCI-H226 lung
NCI-H23 lung = system: NCI-H23 lung
NCI-H460 lung = system: NCI-H460 lung
NCI-H522 lung = system: NCI-H522 lung
NCI/ADR-RES ovarian = system: NCI/ADR-RES ovarian
OVCAR-3 ovarian = system: OVCAR-3 ovarian
OVCAR-4 ovarian = system: OVCAR-4 ovarian
OVCAR-5 ovarian = system: OVCAR-5 ovarian
OVCAR-8 ovarian = system: OVCAR-8 ovarian
PC-3 prostate = system: PC-3 prostate
RPMI-8226 leukemia = system: RPMI-8226 leukemia
RXF 393 renal = system: RXF 393 renal
SF-268 CNS = system: SF-268 CNS
SF-295 CNS = system: SF-295 CNS
SF-539 CNS = system: SF-539 CNS
SK-MEL-2 melanoma = system: SK-MEL-2 melanoma
SK-MEL-28 melanoma = system: SK-MEL-28 melanoma
SK-MEL-5 melanoma = system: SK-MEL-5 melanoma
SK-OV-3 ovarian = system: SK-OV-3 ovarian
SN12C renal = system: SN12C renal
SNB-19 CNS = system: SNB-19 CNS
SNB-75 CNS = system: SNB-75 CNS
SR leukemia = system: SR leukemia
SW-620 colon = system: SW-620 colon
TK-10 renal = system: TK-10 renal
U251 CNS = system: U251 CNS
UACC-257 melanoma = system: UACC-257 melanoma
UACC-62 melanoma = system: UACC-62 melanoma
UO-31 renal = system: UO-31 renal
MALME-3M melanoma = system: MALME-3M melanoma
T-47D breast = system: T-47D breast

## CCN1C(=O)N(CC)C2SC(N/N=C/c3ccccc3)=NC21 (centres undefined)
786-0 renal
  GI50: 583 nM
  TGI: 44500 nM
A498 renal
  GI50: 227 nM
  TGI: 785 nM
A549 NSCLC
  GI50: 606 nM
  TGI: > 100000 nM
ACHN renal
  GI50: 943 nM
  TGI: > 100000 nM
BT-549 breast
  GI50: 464 nM
  TGI: 2300 nM
CAKI-1 renal
  GI50: 403 nM
  TGI: > 100000 nM
CCRF-CEM leukemia
  GI50: 342 nM
  TGI: > 100000 nM
COLO 205 colon
  GI50: 300 nM
  TGI: 945 nM
DU-145 prostate
  GI50: 441 nM
  TGI: > 100000 nM
EKVX NSCLC
  GI50: 583 nM
  TGI: > 100000 nM
HCC-2998 colon
  GI50: 564 nM
  TGI: 34000 nM
HCT-116 colon
  GI50: 371 nM
  TGI: 19800 nM
HCT-15 colon
  GI50: 349 nM
  TGI: > 100000 nM
HL-60(TB) leukemia
  GI50: 257 nM
  TGI: 932 nM
HOP-62 NSCLC
  GI50: 567 nM
  TGI: > 100000 nM
HOP-92 NSCLC
  GI50: 2780 nM
  TGI: > 30300 nM
HS 578T breast
  GI50: 312 nM
  TGI: > 100000 nM
HT29 colon
  GI50: 320 nM
  TGI: > 100000 nM
IGROV1 ovarian
  GI50: 622 nM
  TGI: > 100000 nM
K-562 leukemia
  GI50: 215 nM
  TGI: > 100000 nM
KM12 colon
  GI50: 148 nM
  TGI: > 100000 nM
LOX IMVI melanoma
  GI50: 572 nM
  TGI: > 100000 nM
M14 melanoma
  GI50: 234 nM
  TGI: 4670 nM
MCF7 breast
  GI50: 301 nM
  TGI: > 100000 nM
MDA-MB-231 breast
  GI50: 656 nM
  TGI: > 100000 nM
MDA-MB-435
  GI50: 84.8 nM
  TGI: 317 nM
MOLT-4 leukemia
  GI50: 502 nM
  TGI: > 100000 nM
NCI-H226 lung
  GI50: 754 nM
  TGI: > 100000 nM
NCI-H23 lung
  GI50: 474 nM
  TGI: > 100000 nM
NCI-H460 lung
  GI50: 367 nM
  TGI: > 34200 nM
NCI-H522 lung
  GI50: 210 nM
  TGI: 735 nM
NCI/ADR-RES ovarian
  GI50: 327 nM
  TGI: > 36100 nM
OVCAR-3 ovarian
  GI50: 395 nM
  TGI: > 100000 nM
OVCAR-4 ovarian
  GI50: > 88900 nM
  TGI: > 100000 nM
OVCAR-5 ovarian
  GI50: 521 nM
  TGI: > 100000 nM
OVCAR-8 ovarian
  GI50: 473 nM
  TGI: > 100000 nM
PC-3 prostate
  GI50: 359 nM
  TGI: > 100000 nM
RPMI-8226 leukemia
  GI50: 381 nM
  TGI: > 100000 nM
RXF 393 renal
  GI50: 171 nM
  TGI: 503 nM
SF-268 CNS
  GI50: 3410 nM
  TGI: > 100000 nM
SF-295 CNS
  GI50: 282 nM
  TGI: > 71600 nM
SF-539 CNS
  GI50: 232 nM
  TGI: 683 nM
SK-MEL-2 melanoma
  GI50: 317 nM
  TGI: > 100000 nM
SK-MEL-28 melanoma
  GI50: 1680 nM
  TGI: > 100000 nM
SK-MEL-5 melanoma
  GI50: 614 nM
  TGI: 22700 nM
SK-OV-3 ovarian
  GI50: 614 nM
  TGI: > 100000 nM
SN12C renal
  GI50: 557 nM
  TGI: > 100000 nM
SNB-19 CNS
  GI50: 468 nM
  TGI: > 100000 nM
SNB-75 CNS
  GI50: 173 nM
SR leukemia
  GI50: 194 nM
  TGI: > 100000 nM
SW-620 colon
  GI50: 394 nM
  TGI: > 100000 nM
TK-10 renal
  TGI: > 100000 nM
U251 CNS
  GI50: 343 nM
  TGI: > 100000 nM
UACC-257 melanoma
  TGI: > 100000 nM
UACC-62 melanoma
  GI50: 390 nM
  TGI: > 100000 nM
UO-31 renal
  GI50: 718 nM
  TGI: > 100000 nM

## CC1=C(CN(O)C(N)=O)C2=C(C)C3(CC3)[C@](C)(O)C(=O)C2=C1
786-0 renal
  GI50: 2360 nM
  TGI: 15500 nM
A498 renal
  GI50: 1350 nM
  TGI: 3250 nM
A549 NSCLC
  GI50: 3030 nM
  TGI: > 100000 nM
ACHN renal
  GI50: 1130 nM
  TGI: 8690 nM
BT-549 breast
  GI50: 1180 nM
  TGI: 3180 nM
CAKI-1 renal
  GI50: 1910 nM
  TGI: > 100000 nM
CCRF-CEM leukemia
  GI50: 2220 nM
  TGI: > 100000 nM
COLO 205 colon
  GI50: 753 nM
  TGI: 4580 nM
DU-145 prostate
  GI50: 452 nM
  TGI: 26000 nM
EKVX NSCLC
  GI50: 2340 nM
  TGI: 6850 nM
HCC-2998 colon
  GI50: 219 nM
  TGI: 540 nM
HCT-116 colon
  GI50: 1390 nM
HCT-15 colon
  GI50: 1290 nM
  TGI: 24800 nM
HL-60(TB) leukemia
  GI50: 952 nM
  TGI: > 100000 nM
HOP-62 NSCLC
  GI50: 1850 nM
  TGI: 58700 nM
HOP-92 NSCLC
  GI50: 1080 nM
  TGI: 4210 nM
HS 578T breast
  GI50: 2630 nM
  TGI: 9160 nM
HT29 colon
  GI50: 412 nM
  TGI: 13900 nM
IGROV1 ovarian
  GI50: 2240 nM
  TGI: 6380 nM
K-562 leukemia
  GI50: 1390 nM
  TGI: > 100000 nM
KM12 colon
  GI50: 798 nM
  TGI: 11500 nM
LOX IMVI melanoma
  GI50: 6380 nM
  TGI: 36600 nM
M14 melanoma
  GI50: 819 nM
  TGI: 2960 nM
MALME-3M melanoma
  GI50: 1830 nM
  TGI: 3880 nM
MCF7 breast
  GI50: 366 nM
  TGI: > 100000 nM
MDA-MB-231 breast
  GI50: 1110 nM
  TGI: 5880 nM
MDA-MB-435
  GI50: 382 nM
  TGI: 1430 nM
MOLT-4 leukemia
  GI50: 9020 nM
  TGI: > 100000 nM
NCI-H226 lung
  GI50: 2030 nM
  TGI: 6360 nM
NCI-H23 lung
  GI50: 2280 nM
  TGI: 9830 nM
NCI-H460 lung
  GI50: 2550 nM
  TGI: > 100000 nM
NCI-H522 lung
  GI50: 721 nM
  TGI: 4600 nM
NCI/ADR-RES ovarian
  GI50: 2000 nM
  TGI: 31200 nM
OVCAR-3 ovarian
  GI50: 557 nM
  TGI: 4150 nM
OVCAR-4 ovarian
  GI50: 1790 nM
  TGI: 9190 nM
OVCAR-5 ovarian
  GI50: 374 nM
  TGI: 5070 nM
OVCAR-8 ovarian
  GI50: 634 nM
  TGI: > 100000 nM
PC-3 prostate
  GI50: 1460 nM
  TGI: 11500 nM
RPMI-8226 leukemia
  GI50: 348 nM
  TGI: 2670 nM
RXF 393 renal
  GI50: 328 nM
  TGI: 1190 nM
SF-268 CNS
  GI50: 1720 nM
  TGI: > 100000 nM
SF-295 CNS
  GI50: 789 nM
  TGI: > 100000 nM
SF-539 CNS
  GI50: 2080 nM
  TGI: 6380 nM
SK-MEL-2 melanoma
  GI50: 2110 nM
  TGI: 4850 nM
SK-MEL-28 melanoma
  GI50: 732 nM
  TGI: 3000 nM
SK-MEL-5 melanoma
  GI50: 5610 nM
  TGI: 18500 nM
SK-OV-3 ovarian
  GI50: 2620 nM
  TGI: 9960 nM
SN12C renal
  GI50: 2620 nM
  TGI: > 100000 nM
SNB-19 CNS
  GI50: 2580 nM
  TGI: > 100000 nM
SNB-75 CNS
  GI50: 1280 nM
  TGI: 3390 nM
SR leukemia
  GI50: 896 nM
  TGI: > 100000 nM
SW-620 colon
  GI50: 1080 nM
  TGI: > 100000 nM
T-47D breast
  GI50: 992 nM
  TGI: > 100000 nM
TK-10 renal
  GI50: 2010 nM
  TGI: 8020 nM
U251 CNS
  GI50: 3470 nM
  TGI: > 100000 nM
UACC-257 melanoma
  GI50: 3020 nM
  TGI: 31300 nM
UACC-62 melanoma
  GI50: 1290 nM
  TGI: 3060 nM
UO-31 renal
  GI50: 254 nM
  TGI: 830 nM

Reference: PubChem BioAssay (NCI)
